Measurements: ChEMBL document CHEMBL5316331, “Modulating Cytotoxicity with Lego-like Chemistry: Upgrading Mitochondriotropic Antioxidants with Prototypical Cationic Carrier Bricks” (J Med Chem, 2023)
Active and inactive are the calls of the source. No cut-off for these calls is given here.

How the values were obtained:
[1] = Cytotoxicity against human SH-SY5Y cells assessed as cell viability incubated for 24 hrs; assay type: toxicity, cell-based; conditions: read-out: Activity
HepG2 [2] = assay: Cytotoxicity against human HepG2 cells assessed as increase in cell viability at 10 to 100 uM incubated for 24 hrs; assay type: toxicity, cell-based; conditions: hepg2, 24 h, dose 10-100 µM
SH-SY5Y [3] = assay: Neuroprotective activity against H2O2-induced human SH-SY5Y cells assessed as increase in cell viability at 10 uM preincubated for 30 mins followed by H2O2 addition and measured after 24 hrs by SRB assay; assay type: functional, cell-based; conditions: time 24.5 hrs
SH-SY5Y [4] = assay: Antioxidant activity against human SH-SY5Y cells assessed as effect on cellular OCR at 10 uM incubated for 24 hrs followed by addition of oligomycin/FCCP/antimycin A /rotenone by Cell Mito stress assay based seahorse XF96 flux analyzer; assay type: functional
[5] = Cytotoxicity against human HepG2 cells assessed as cell viability incubated for 24 hrs; assay type: toxicity, cell-based; conditions: read-out: Activity
[6] = Drug uptake in C57BL/6J mouse liver mitochondria at 5 uM in presence of succinate by UPLC analysis; assay type: ADME
SH-SY5Y [7] = assay: Neuroprotective activity against H2O2-induced human SH-SY5Y cells assessed as increase in cell viability at 50 uM preincubated for 30 mins followed by H2O2 addition and measured after 24 hrs by SRB assay; assay type: functional, cell-based; conditions: time 24.5 hrs
SH-SY5Y [8] = assay: Cytotoxicity against human SH-SY5Y cells assessed as increase in cell viability at 10 to 100 uM incubated for 24 hrs; assay type: toxicity, cell-based; conditions: dose 10-100 µM
[9] = Drug uptake in C57BL/6J mouse liver mitochondria at 5 uM in presence of FCCP by UPLC analysis; assay type: ADME
[10] = Drug uptake in C57BL/6J mouse liver mitochondria at 5 uM in presence of rotenone by UPLC analysis; assay type: ADME
SH-SY5Y [11] = assay: Antioxidant activity against human SH-SY5Y cells assessed as effect on cellular OCR at 50 uM incubated for 24 hrs followed by addition of oligomycin/FCCP/antimycin A /rotenone by Cell Mito stress assay based seahorse XF96 flux analyzer; assay type: functional
SH-SY5Y [12] = assay: Cytotoxicity against human SH-SY5Y cells at > 10 uM incubated for 48 hrs; assay type: toxicity, cell-based
SH-SY5Y [13] = assay: Effect on cell mitochondrial mass in human SH-SY5Y cells assessed as reduction on mitochondrial mass at 10 uM incubated for 24 hrs by mito-tracker green dye based flow cytometry; assay type: functional; set-up: scale not given: the % may be the effect or the level left
SH-SY5Y [14] = assay: Neuroprotective activity against tBHP-induced human SH-SY5Y cells assessed as increase in cell viability at 10 uM preincubated for 30 mins followed by t-BHP addition at 15 uM and measured after 24 hrs by neutral dye uptake assay relative to control; assay type: functional; conditions: time 24.5 hrs
SH-SY5Y [15] = assay: Cytotoxicity against human SH-SY5Y cells assessed as decrease in cell mass at > 25 uM incubated for 24 hrs by SRB assay; assay type: toxicity, cell-based
HepG2 [16] = assay: Cytotoxicity against human HepG2 cells assessed as decrease in cell mass at > 6.25 uM incubated for 24 hrs by SRB assay; assay type: toxicity, cell-based; conditions: hepg2, 24 h
[17] = Dissociation constant, pKa of the compound by UV-vis spectrophotometric analysis; assay type: physicochemical
HepG2 [18] = assay: Cytotoxicity against human HepG2 cells assessed as decrease in lysosomal activity at > 10 uM incubated for 24 hrs by resazurin reduction assay; assay type: toxicity, cell-based; conditions: hepg2, 24 h
SH-SY5Y [19] = assay: Cytotoxicity against human SH-SY5Y cells assessed as decrease in cellular metabolic activity at 1 to 100 uM incubated upto 48 hrs by resazurin reduction assay; assay type: toxicity, cell-based; conditions: dose 1-100 µM
SH-SY5Y [20] = assay: Effect on cell death pathway in human SH-SY5Y cells assessed as increase in necrotic cells at 50 uM incubated for 24 hrs by Annexin V-FITC/PI staining based microscopy; assay type: functional
SH-SY5Y [21] = assay: Effect on cell death pathway in human SH-SY5Y cells assessed as increase in early apoptotic cells at 50 uM incubated for 24 hrs by Annexin V-FITC/PI staining based microscopy; assay type: functional
SH-SY5Y [22] = assay: Neuroprotective activity against tBHP-induced human SH-SY5Y cells assessed as increase in cell viability at 10 uM preincubated for 30 mins followed by t-BHP addition at 30 uM and measured after 24 hrs by neutral dye uptake assay relative to control; assay type: functional; conditions: time 24.5 hrs
SH-SY5Y [23] = assay: Induction of mitochondrial membrane polarization in human SH-SY5Y cells at 10 uM incubated for 24 hrs by JC-1 staining based fluorescence assay; assay type: functional
SH-SY5Y [24] = assay: Antioxidant activity against human SH-SY5Y cells assessed as increase in proton leak-associated respiration at 10 uM incubated for 24 hrs followed by addition of oligomycin/FCCP/antimycin A /rotenone by Cell Mito stress assay based seahorse XF96 flux analyzer; assay type: functional
SH-SY5Y [25] = assay: Induction of mitochondrial membrane polarization in human SH-SY5Y cells at 50 uM incubated for 24 hrs by JC-1 staining based fluorescence assay; assay type: functional
SH-SY5Y [26] = assay: Antioxidant activity against human SH-SY5Y cells assessed as increase in ECAR at 10 uM incubated for 24 hrs followed by addition of oligomycin/FCCP/antimycin A /rotenone by Cell Mito stress assay based seahorse XF96 flux analyzer; assay type: functional
SH-SY5Y [27] = assay: Effect on cell morphology in human SH-SY5Y cells assessed as reduction in neurite at 10 uM incubated for 24 hrs by Phase-contrast microscopy; assay type: functional, cell-based
HepG2 [28] = assay: Cytotoxicity against human HepG2 cells assessed as decrease in lysosomal activity at > 3.1 uM incubated for 24 hrs by resazurin reduction assay; assay type: toxicity, cell-based; conditions: hepg2, 24 h
SH-SY5Y [29] = assay: Antioxidant activity against human SH-SY5Y cells assessed as effect on ATP production-linked respiration at 10 uM incubated for 24 hrs followed by addition of oligomycin/FCCP/antimycin A /rotenone by Cell Mito stress assay based seahorse XF96 flux analyzer; assay type: functional
SH-SY5Y [30] = assay: Cytotoxicity against human SH-SY5Y cells assessed as decrease in lysosomal activity at 1 to 100 uM incubated upto 48 hrs by resazurin reduction assay; assay type: toxicity, cell-based; conditions: dose 1-100 µM
SH-SY5Y [31] = assay: Antioxidant activity against human SH-SY5Y cells assessed as effect on intracellular ATP level at 10 uM incubated for 24 hrs followed by addition of oligomycin/FCCP/antimycin A /rotenone by Cell Mito stress assay based seahorse XF96 flux analyzer; assay type: functional
SH-SY5Y [32] = assay: Cytotoxicity against human SH-SY5Y cells assessed as decrease in lysosomal activity at > 25 uM incubated for 24 hrs by neutral red uptake assay; assay type: toxicity, cell-based
HepG2 [33] = assay: Cytotoxicity against human HepG2 cells assessed as decrease in cellular metabolic activity at > 10 uM incubated for 24 hrs by resazurin reduction assay; assay type: toxicity, cell-based; conditions: hepg2, 24 h
SH-SY5Y [34] = assay: Effect on cell morphology in human SH-SY5Y cells assessed as reduction in cell body at 50 uM incubated for 24 hrs by Phase-contrast microscopy; assay type: functional, cell-based
SH-SY5Y [35] = assay: Effect on cell death pathway in human SH-SY5Y cells assessed as increase in late apoptotic cells at 10 uM incubated for 24 hrs by Annexin V-FITC/PI staining based microscopy; assay type: functional
SH-SY5Y [36] = assay: Effect on cell death pathway in human SH-SY5Y cells assessed as increase in early apoptotic cells at 10 uM incubated for 24 hrs by Annexin V-FITC/PI staining based microscopy; assay type: functional
SH-SY5Y [37] = assay: Cytotoxicity against human SH-SY5Y cells assessed as decrease in lysosomal activity at > 50 uM incubated for 24 hrs by neutral red uptake assay; assay type: toxicity, cell-based
SH-SY5Y [38] = assay: Effect on cell morphology in human SH-SY5Y cells assessed as reduction in neurite at 50 uM incubated for 24 hrs by Phase-contrast microscopy; assay type: functional, cell-based
SH-SY5Y [39] = assay: Effect on cell death pathway in human SH-SY5Y cells assessed as increase in necrotic cells at 10 uM incubated for 24 hrs by Annexin V-FITC/PI staining based microscopy; assay type: functional
SH-SY5Y [40] = assay: Effect on cell death pathway in human SH-SY5Y cells assessed as increase in late apoptotic cells at 50 uM incubated for 24 hrs by Annexin V-FITC/PI staining based microscopy; assay type: functional
SH-SY5Y [41] = assay: Neuroprotective activity against tBHP-induced human SH-SY5Y cells assessed as increase in cell viability at 10 uM preincubated for 30 mins followed by t-BHP addition and measured after 24 hrs by SRB assay; assay type: functional, cell-based; conditions: time 24.5 hrs
SH-SY5Y [42] = assay: Effect on cell morphology in human SH-SY5Y cells assessed as reduction in cell body at 10 uM incubated for 24 hrs by Phase-contrast microscopy; assay type: functional, cell-based
HepG2 [43] = assay: Cytotoxicity against human HepG2 cells assessed as decrease in cellular metabolic activity at > 3.1 uM incubated for 24 hrs by resazurin reduction assay; assay type: toxicity, cell-based; conditions: hepg2, 24 h

In the case of `CS(=O)(=O)[O-].Cn1cc[n+](CCCCCCCCCCNC(=O)/C=C/c2ccc(O)c(O)c2)c1`, the viability at 24 h [1] is reported as ≥ 85%, the Activity (HepG2 [2]) is reported as “Non-Toxic” and the Activity (SH-SY5Y [3]) is reported as “inactive”. For the same compound, the Activity (SH-SY5Y [4]) was “inactive”, the viability at 24 h [5] was ≥ 85% and the Drug uptake [6] was ~ 25%. For the same compound, the Activity (SH-SY5Y [7]) was “inactive”, the Activity (SH-SY5Y [8]) was “Non-Toxic” and the Drug uptake [9] was “Active”. The Drug uptake [10] was “Not Active”, the Activity (SH-SY5Y [11]) was “inactive” and the Activity (SH-SY5Y [12]) was “Toxic”.

For `CS(=O)(=O)[O-].O=C(/C=C/c1ccc(O)c(O)c1)NCCCCCCCCCC[P+](c1ccccc1)(c1ccccc1)c1ccccc1`, the Activity (SH-SY5Y [13]) was 69.2%, the Activity (SH-SY5Y [14]) was 95.1% and the Activity (SH-SY5Y [15]) was “Toxic”. The Activity (HepG2 [16]) was “Toxic”, the pKa [17] was 8.61 and the Activity (HepG2 [18]) was “Toxic”. For the same compound, the Activity (SH-SY5Y [19]) was “Toxic”, the Activity (SH-SY5Y [20]) was “Active” and the Activity (SH-SY5Y [21]) was “Active”. The Activity (SH-SY5Y [22]) was 54.9%, the Activity (SH-SY5Y [23]) was 124.8% and the Activity (SH-SY5Y [24]) was “Active”. The Activity (SH-SY5Y [3]) was “inactive”, the Activity (SH-SY5Y [25]) was 72.7% and the Activity (SH-SY5Y [26]) was “Active”. For the same compound, the Activity (SH-SY5Y [27]) was “Active”, the Activity (HepG2 [28]) was “Toxic” and the Activity (SH-SY5Y [29]) was “inactive”. For the same compound, the Activity (SH-SY5Y [30]) was “Toxic”, the Activity (SH-SY5Y [31]) was “inactive” and the Activity (SH-SY5Y [32]) was “Toxic”. The Activity (HepG2 [33]) was “Toxic”, the Drug uptake [6] was ~ 25% and the Activity (SH-SY5Y [34]) was “Active”. The Activity (SH-SY5Y [35]) was “Active”, the Activity (SH-SY5Y [36]) was “Active” and the Activity (SH-SY5Y [37]) was “Toxic”. For the same compound, the Activity (SH-SY5Y [38]) was “Active”, the Drug uptake [9] was “Active” and the Drug uptake [10] was “Not Active”. The Activity (SH-SY5Y [39]) was “Active”, the Activity (SH-SY5Y [40]) was “Active” and the Activity (SH-SY5Y [41]) was “Active”. The Activity (SH-SY5Y [42]) was “Active” and the Activity (HepG2 [43]) was “Toxic”.
